From US20110190253A1, “METHOD FOR TREATING TUBERCULOSIS” (priority 2008, published 2011)

Test system: extensively drug-resistant (XDR) clinical strains of M. tuberculosis
Assay: microbe, parasite or virus in culture
Type: cell-based
Conditions: for variability of MIC values among strains: thirteen XDR clinical isolates, clavulanate 2.5 μg ml^−1, data not shown

CC1(C)S[C@@H]2[C@H](NC(=O)[C@H](N)c3ccccc3)C(=O)N2[C@H]1C(=O)O [ampicillin]
variability of MIC values among strains: substantial variability

CC(=O)OCC1=C(C(=O)O)N2C(=O)[C@@H](NC(=O)Cc3cccs3)[C@H]2SC1 [cephalothin]
variability of MIC values among strains: substantial variability

C[C@@H](O)[C@H]1C(=O)N2C(C(=O)O)=C(S[C@@H]3CN[C@H](C(=O)N(C)C)C3)[C@H](C)[C@H]12 [meropenem]
MIC (Mycobacterium tuberculosis, read-out: MIC value): ≤ 1 µg/mL
